Earlier results in US20170143768A1, “OINTMENT FOR THE TREATMENT OF HEMORRHOIDAL DISEASE” (Global Treat SRL, priority 2014, published 2017).

solubility in water: water-soluble
SMILES: CC12CCC(CC1=O)C2(C)C (stereo not shown) [camphor]
